Measurements from publication PMC5829251, “NAD^+ analog reveals PARP-1 substrate-blocking mechanism and allosteric communication from catalytic center to DNA-binding domains” (Nature Communications, 2018).

Key:
PARP-2 = molecular target: T1, PARP-2 (Homo sapiens, UniProt Q9UGN5); experiment: DSF, full-length PARP-2 with or without DNA; assay type: binding; details: for TM: Figure 3c, BAD 1250 μM, in °C (unit assumed)
T1 construct: PARP-2 (isoform 2, residues 1–570) was cloned in pET28 vector; made in house
Protocol: (§1) DSF experiments were performed as described, [13] using 5 µM protein, 2.5 µM DNA when indicated and various concentrations of compound (BAD, carba-NAD^+, benzamide, and ADP-ribose) as indicated in Fig. 1 and Fig. 3. Experiments were performed on a Roche LightCycler 480 RT-PCR. Reactions including DNA were performed with a 26- or 28-base pair (bp) unphosphorylated oligonucleotide for PARP-1, a 28-bp 5´-phosphorylated (5´P) oligonucleotide for PARP-2, and a 47-bp oligonucleotide including a central 5´P nick for PARP-3^13 in the following buffer: 25 mM Hepes pH 8.0, 150 mM NaCl, 1 mM EDTA, and 0.1 mM TCEP. Reactions with PARP-3 were conducted at lower ionic strength to allow binding to DNA as described (25 mM Hepes pH 8.0, 50 mM NaCl, 1 mM EDTA and 0.1 mM TCEP)[13]. ΔTM values were calculated by subtracting the TM determined for the protein in the absence of compound from the TM determined in the presence of compound. Experiments were performed in triplicate and a Boltzmann sigmoid was fit to the data to determine the TM values (KaleidaGraph).

PARP-3 = molecular target: T2, PARP-3 (Homo sapiens, UniProt Q9Y6F1); experiment: DSF, full-length PARP-3 with or without DNA; assay type: binding; details: for TM: Figure 3c, BAD 1250 μM, in °C (unit assumed)
T2 construct: PARP-3 (isoform b, residues 1–533) was cloned in pDEST17 vector; made in house
T2 sequence (Q9Y6F1 1-533): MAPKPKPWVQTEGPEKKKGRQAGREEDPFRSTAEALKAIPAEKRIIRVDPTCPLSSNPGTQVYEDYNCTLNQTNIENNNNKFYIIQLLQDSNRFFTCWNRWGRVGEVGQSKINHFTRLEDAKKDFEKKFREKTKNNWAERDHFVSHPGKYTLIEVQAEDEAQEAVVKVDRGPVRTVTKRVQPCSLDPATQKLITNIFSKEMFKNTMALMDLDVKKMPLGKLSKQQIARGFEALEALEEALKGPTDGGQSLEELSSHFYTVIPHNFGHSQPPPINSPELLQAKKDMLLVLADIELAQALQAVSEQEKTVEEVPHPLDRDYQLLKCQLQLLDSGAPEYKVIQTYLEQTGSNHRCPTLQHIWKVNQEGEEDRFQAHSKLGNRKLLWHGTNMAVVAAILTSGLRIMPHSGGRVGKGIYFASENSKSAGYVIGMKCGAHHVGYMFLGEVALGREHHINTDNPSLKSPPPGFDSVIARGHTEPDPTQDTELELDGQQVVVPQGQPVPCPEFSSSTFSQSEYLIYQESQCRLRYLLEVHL
Protocol: as §1

PARP-1 D45A = molecular target: T3, PARP-1 D45A (Homo sapiens, UniProt P09874, D45A); experiment: DSF, full-length PARP-1 D45A with or without DNA; assay type: binding; details: for TM: Figure 3b, BAD 1250 μM, in °C (unit assumed)
T3 construct: Full-length PARP-1 WT (residues 1–1014) was cloned in pET28 vector and site-directed mutagenesis was performed; made in house; host or cells: E. coli
Protocol: as §1

PARP-1 K633A = molecular target: T4, PARP-1 K633A (Homo sapiens, UniProt P09874, K633A); experiment: DSF, full-length PARP-1 K633A with or without DNA; assay type: binding; details: for TM: Figure 3b, BAD 1250 μM, in °C (unit assumed)
T4 construct: Full-length PARP-1 WT (residues 1–1014) was cloned in pET28 vector and site-directed mutagenesis was performed; made in house; host or cells: E. coli
Protocol: as §1

full-length PARP-1 WT [1] = molecular target: T5, full-length PARP-1 WT (Homo sapiens, UniProt P09874); experiment: DSF, full-length PARP-1 WT with or without DNA; assay type: binding; details: BAD 1250 μM; for TM: in °C (unit assumed)
T5 construct: Full-length PARP-1 WT (residues 1–1014) was cloned in pET28 vector; made in house; host or cells: E. coli
Protocol: as §1

PARP-1 = molecular target: T6, PARP-1 (Homo sapiens, UniProt P09874); experiment: SDS-PAGE PARP-1 activity assay (DNA-dependent automodification); assay type: biochemical; details: 1 μM DNA, 1 μM protein, 50 μM NAD+; concentration series
T6 construct: Full-length PARP-1 WT (residues 1–1014) was cloned in pET28 vector; made in house; host or cells: E. coli
Protocol: The SDS-PAGE activity assay was performed as described[28] using 1 µM protein, 1 μM DNA (18 bp oligonucleotide), 50 µM NAD^+, and various concentrations of BAD and carba-NAD^+ as indicated. Reactions were incubated for 5 min before quenching with SDS-PAGE loading buffer.

PARP-1 W246A = molecular target: T7, PARP-1 W246A (Homo sapiens, UniProt P09874, W246A); experiment: DSF, full-length PARP-1 W246A with or without DNA; assay type: binding; details: for TM: Figure 3b, BAD 1250 μM, in °C (unit assumed)
T7 construct: Full-length PARP-1 WT (residues 1–1014) was cloned in pET28 vector and site-directed mutagenesis was performed; made in house; host or cells: E. coli
Protocol: as §1

full-length PARP-1 WT [2] = molecular target: T5, full-length PARP-1 WT; experiment: One-dimensional 1H NMR monitoring BAD protons; assay type: binding
Protocol: Full-length PARP-1 WT and a dumbbell DNA containing a central 1-nucleotide gap (5′-[…]-3′)[7], were dialyzed against a modified PBS buffer (222 mM NaCl, 2.7 mM KCl, 200 μM DTT, 10 mM sodium phosphate, pH 7.4). An aliquot of the dialysis PBS buffer was then lyophylized and resuspended in deuterated water (D2O). The NMR samples were prepared by diluting the protein (40 μM final), DNA (40 μM final), and BAD (20 μM final) in the deuterated buffer such that all samples contained 85% D2O final. The samples were incubated 30 min at RT prior to collecting the NMR spectra. ^1H (700.303 MHz) NMR spectra were acquired with a Bruker Avance II 700 spectrometer equipped with a 16.4 T narrowbore magnet and a double-resonance (^1 H/^13 C) cryoprobe. All samples were run using 3 mm NMR tubes (180 µL). 1D experiments were acquired with excitation sculpting to suppress residual water signal. The use of D2O as the primary solvent (85%) removed the signals from amide hydrogens in the region of interest (7–9 ppm), however a low-power T1p filter (70 ms) was necessary after the 90-degree excitation pulse to reduce signals from the non-exchangeable hydrogens arising from the large, slowly tumbling protein and DNA.

T5 sequence (P09874 whole entry, the tested form may be a part): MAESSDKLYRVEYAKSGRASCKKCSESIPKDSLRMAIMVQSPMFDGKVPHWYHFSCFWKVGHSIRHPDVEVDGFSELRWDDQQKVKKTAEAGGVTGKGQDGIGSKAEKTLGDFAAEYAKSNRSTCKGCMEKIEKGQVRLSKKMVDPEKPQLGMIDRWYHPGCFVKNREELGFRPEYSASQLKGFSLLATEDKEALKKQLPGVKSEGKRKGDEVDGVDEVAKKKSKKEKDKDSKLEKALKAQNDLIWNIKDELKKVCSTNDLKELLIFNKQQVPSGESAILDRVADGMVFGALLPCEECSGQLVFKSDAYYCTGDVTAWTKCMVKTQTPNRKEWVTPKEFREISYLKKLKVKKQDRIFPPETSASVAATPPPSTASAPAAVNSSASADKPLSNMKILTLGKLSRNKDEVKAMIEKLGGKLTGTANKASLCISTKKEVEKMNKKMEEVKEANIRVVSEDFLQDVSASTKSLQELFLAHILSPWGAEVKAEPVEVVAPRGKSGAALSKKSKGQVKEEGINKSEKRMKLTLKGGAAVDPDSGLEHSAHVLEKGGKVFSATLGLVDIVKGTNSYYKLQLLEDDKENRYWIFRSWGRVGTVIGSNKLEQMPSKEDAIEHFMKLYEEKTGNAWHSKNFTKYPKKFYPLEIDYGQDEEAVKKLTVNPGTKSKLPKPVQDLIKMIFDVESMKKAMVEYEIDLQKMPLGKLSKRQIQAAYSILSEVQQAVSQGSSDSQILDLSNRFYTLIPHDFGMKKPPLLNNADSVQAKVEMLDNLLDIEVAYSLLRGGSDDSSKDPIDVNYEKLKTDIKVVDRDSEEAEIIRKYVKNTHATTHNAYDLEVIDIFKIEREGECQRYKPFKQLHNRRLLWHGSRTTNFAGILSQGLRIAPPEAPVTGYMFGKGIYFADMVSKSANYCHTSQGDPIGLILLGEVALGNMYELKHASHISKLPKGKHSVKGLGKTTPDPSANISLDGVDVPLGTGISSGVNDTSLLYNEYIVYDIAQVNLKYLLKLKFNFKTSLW
T1 sequence (Q9UGN5 1-570 isoform Q9UGN5-2): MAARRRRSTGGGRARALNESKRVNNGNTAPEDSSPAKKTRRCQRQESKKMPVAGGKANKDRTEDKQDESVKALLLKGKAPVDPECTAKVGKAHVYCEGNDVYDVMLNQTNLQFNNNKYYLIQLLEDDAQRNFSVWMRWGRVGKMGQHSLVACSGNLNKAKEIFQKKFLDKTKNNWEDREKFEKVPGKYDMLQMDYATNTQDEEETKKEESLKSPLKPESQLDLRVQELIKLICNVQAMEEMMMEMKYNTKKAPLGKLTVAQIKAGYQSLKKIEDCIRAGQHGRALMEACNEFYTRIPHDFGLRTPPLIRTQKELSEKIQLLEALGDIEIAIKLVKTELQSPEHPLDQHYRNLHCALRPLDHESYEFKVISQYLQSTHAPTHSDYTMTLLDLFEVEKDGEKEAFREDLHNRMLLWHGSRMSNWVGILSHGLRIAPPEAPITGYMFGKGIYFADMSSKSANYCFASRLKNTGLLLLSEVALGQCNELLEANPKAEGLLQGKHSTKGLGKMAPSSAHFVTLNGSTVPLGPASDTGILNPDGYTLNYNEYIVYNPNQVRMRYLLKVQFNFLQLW
T3 sequence (P09874 whole entry D45A, the tested form may be a part): as the sequence (P09874 whole entry, the tested form may be a part) above, with D45A counted along it
T4 sequence (P09874 whole entry K633A, the tested form may be a part): as the sequence (P09874 whole entry, the tested form may be a part) above, with K633A counted along it
T7 sequence (P09874 whole entry W246A, the tested form may be a part): as the sequence (P09874 whole entry, the tested form may be a part) above, with W246A counted along it
T6 sequence (P09874 whole entry, the tested form may be a part): as the sequence (P09874 whole entry, the tested form may be a part) above

NC(=O)c1cccc(C2OC(COP(=O)(O)OP(=O)(O)OCC3OC(n4cnc5c(N)ncnc54)C(O)C3O)C(O)C2O)c1 (stereo not shown) [BAD, benzamide adenine dinucleotide]
TM (PARP-2; PARP-2, no DNA, TM without BAD 47.71): 47.47
TM (PARP-2; PARP-2 with DNA (2.5 μM, 28-bp duplex 5'P), TM without BAD 45.44): 47.28
evidence of BAD binding in the DSF assay (PARP-2; PARP-2, with or without DNA bearing 5'P): only showed evidence of BAD binding in the presence of activating DNA
TM (PARP-3; PARP-3, no DNA, TM without BAD 35.81): 35.54
TM (PARP-3; PARP-3 with DNA (2.5 μM, 47-bp duplex with central 5'P nick), TM without BAD 39.70): 41.02
evidence of BAD binding in the DSF assay (PARP-3; PARP-3, with or without DNA bearing 5'P): only showed evidence of BAD binding in the presence of activating DNA
TM shift in the presence of BAD and DNA (PARP-1 D45A; D45A (Zn1–WGR interface mutation), relative to WT): substantial reduction in TM shift
TM (PARP-1 D45A; D45A with DNA (2.5 μM), TM without BAD 46.77): 46.61
TM (PARP-1 D45A; D45A, no DNA, TM without BAD 46.20): 46.68
TM (PARP-1 K633A; K633A with DNA (2.5 μM), TM without BAD 44.76): 44.86
TM (PARP-1 K633A; K633A, no DNA, TM without BAD 45.50): 45.32
TM shift in the presence of BAD and DNA (PARP-1 K633A; K633A (Zn3–WGR–HD interface mutation), relative to WT): substantial reduction in TM shift
increase in the TM of full-length PARP-1 owing to BAD (full-length PARP-1 WT [1]; with or without DNA (2.5 μM)): observed only with DNA present
TM (full-length PARP-1 WT [1]; Figure 3a, WT with DNA (2.5 μM, 26-bp duplex), TM without BAD 44.35): 47.65
TM (full-length PARP-1 WT [1]; Figure 3a, WT, no DNA, TM without BAD 48.17): 48.19
TM (full-length PARP-1 WT [1]; Figure 3b, WT with DNA (2.5 μM, 26-bp duplex), TM without BAD 42.85): 45.99
TM (full-length PARP-1 WT [1]; Figure 3b, WT, no DNA, TM without BAD 47.41): 47.09
TM (full-length PARP-1 WT [1]; Figure 3c, PARP-1, no DNA, TM without BAD 47.93): 48.15
TM (full-length PARP-1 WT [1]; Figure 3c, PARP-1 with DNA (2.5 μM, 28-bp duplex), TM without BAD 44.45): 48.03
concentration at which inhibition of DNA-dependent PARP-1 automodification activity starts (PARP-1): 50 µM
TM (PARP-1 W246A; W246A with DNA (2.5 μM), TM without BAD 47.45): 47.41
TM (PARP-1 W246A; W246A, no DNA, TM without BAD 47.24): 47.23
TM shift in the presence of BAD and DNA (PARP-1 W246A; W246A (Zn1–Zn3 interface mutation), relative to WT): substantial reduction in TM shift
level of signal reduction of BAD spectrum peaks (full-length PARP-1 WT [2]; BAD 20 μM with PARP-1 40 μM and DNA 40 μM (dumbbell DNA, central 1 nt-gap)): ~ 95%
BAD spectrum compared with BAD alone (full-length PARP-1 WT [2]; BAD 20 μM with PARP-1 40 µM, no DNA): essentially identical spectrum
